Reference: patent US20180078560A1, “USE OF 4-(4-FLUORO-2-METHOXYPHENYL)-N-{3-[(S-METHYLSULFONIMIDOYL)METHYL]PHENYL}-1,3,5-TRIAZIN-2-AMINE FOR TREATING MULTIPLE MYELOMA” (Bayer Pharma Aktiengesellschaft, priority 2015, published 2018)
Entries after “also recorded” stand apart in the source; their conditions may differ.

Experiments:
[1] = Tolerability (survival and body weight) in xenograft-bearing mice; type: in vivo
Description: (§1) In vivo efficacy was determined in female NOD/SCID mice bearing subcutaneous multiple myeloma NCI-H929 xenografts. Compound A′ was assessed at one dose level in monotherapy. Anti-tumour activity and tolerability of the treated group was assessed using the vehicle control group as a reference.
Mortality checks were conducted daily during routine monitoring.
Mice were weighed twice a week. Relative body weights of individual mice in % were calculated by dividing the individual body weight on day X (BWX) by the individual body weight on day 0 (BW0) multiplied by 100 according to the formula: […]
Group median relative body weights were calculated as well, considering only the weights of mice that were alive on the day in question.
The in vivo efficacy and tolerability of BHC's investigational compound Compound A′ was assessed in monotherapy in the NCI-H929 multiple myeloma xenograft model. NCI-H929 tumour fragments, obtained from serial passage in nude mice, were implanted subcutaneously into female NOD/SCID mice. Compound A′ was administered orally at one dose level (25 mg/kg/day) in monotherapy once daily and treatment was started once subcutaneous tumours were established. A vehicle-treated control group was included in each experiment. […] Anti-tumour activity (tumour growth inhibition) and tolerability of treatment group was assessed using the vehicle control group as a reference.

EJM = experiment: Proliferation assay, EJM cell line; type: cell-based; details: Homo sapiens, Multiple myeloma, after 72 hours of incubation
NCI-H929 = experiment: Proliferation assay, NCI-H929 cell line; type: cell-based; details: Homo sapiens, Multiple myeloma, after 72 hours of incubation
[2] = system: NCI-H929 multiple myeloma xenograft; experiment: In vivo efficacy in NCI-H929 multiple myeloma xenograft model; parameters: species or system NOD/SCID mice; details: 25 mg/kg/day p.o. once daily
Description: The aim of the present experiments was to assess the in vivo efficacy and tolerability of Compound A′ in monotherapy in the NCI-H929 multiple myeloma xenograft model subcutaneously implanted into NOD/SCID mice.
as §1
Multiple myeloma tumour fragments, derived from the NCI-H929 cell line, were obtained from xenografts in serial passage in nude mice and placed in PBS containing 10% penicillin/streptomycin. Tumour fragments (one fragment per animal; 3-4 mm edge length) were then subcutaneously implanted in the flank of NOD/SCID recipient mice under isofluorane anaesthesia.
At randomisation, the volume of growing tumours was initially determined. […] The result of the randomisation was documented and maintained with the experimental data Animals not randomised were euthanised. […]
The tumour volumes were determined by two-dimensional measurement with a caliper on the day of randomisation (day 0) and then twice weekly (i.e. on the same days on which mice were weighed). Tumour volumes were calculated according to the formulas: […]
Relative volumes of individual tumours (RTVs) for Day x were calculated by dividing the absolute individual tumour volume on Day x (Tx) by the absolute individual tumour volume of the same tumour on Day 0 (T0) multiplied by 100%:
Anti-tumour activity was evaluated as maximum tumour volume inhibition versus the vehicle control group.
Tumour inhibition for a particular day (T/C in %) was calculated from the ratio of the median RTV values of test versus control groups multiplied by 100.
The minimum (or optimum) T/C% value recorded for a particular test group during an experiment represents the maximum anti-tumour activity for the respective treatment. T/C values were calculated if at least 50% of the randomized animals in the treated group were alive on the day in question. […]

OPM-2 = experiment: Proliferation assay, OPM-2 cell line; type: cell-based; details: Homo sapiens, Multiple myeloma, after 72 hours of incubation
JJN3 = experiment: Proliferation assay, JJN3 cell line; type: cell-based; details: Homo sapiens, JJN-3, Multiple myeloma, after 72 hours of incubation

Q: With COc1cc(F)ccc1-c1ncnc(Nc2cccc(CS(C)(=N)=O)c2)n1 (single isomer, unassigned; (+)) [Compound A′, (+)-4-(4-Fluoro-2-methoxyphenyl)-N-{3-[(S-methylsulfonimidoyl)methyl]phenyl}-1,3,5-triazin-2-amine] as the compound, how does the “group median BWL (body weight loss)” value ([1]; NCI-H929 xenograft-bearing NOD/SCID mice, 25 mg/kg/day p.o. once daily) read?
A: ≤ 2.7%

Q: What about the tolerability profile ([1]; multiple myeloma xenograft-bearing mice, 25 mg/kg/day p.o.) of the same compound?
A: acceptable tolerability profile

Q: What about the IC50 (EJM) of the same compound?
A: 200 nM

Q: And the IC50 (NCI-H929)?
A: 237 nM

Q: What about the “NCI-H929 tumour growth vs vehicle control group” value ([2]; Mann-Whitney-Wilcoxon U-test) of the same compound?
A: significantly reduced; also recorded: significantly attenuated

Q: What about the “minimum T/C value” ([2]; NCI-H929 xenograft s.c. in female NOD/SCID mice, ratio of median RTV vs vehicle) of the same compound?
A: 5.5%

Q: What about the anti-tumour activity rating ([2]; NCI-H929 xenograft, rating from optimum T/C) of the same compound?
A: High anti-tumour activity

Q: What about the IC50 (OPM-2) of the same compound?
A: 600 nM

Q: And the IC50 (JJN3)?
A: 330 nM
